From EP4786467A1, “QUINOLINONE COMPOUND, PREPARATION METHOD THEREFOR AND USE THEREOF” (Vigonvita Life Sciences Co., Ltd., priority 2023, dated 2025)

Tests used:
human SERT = biological target: T1, human SERT (Homo sapiens, UniProt P31645); experiment: 5-HT Transporter Inhibitory Activity Assay (Neurotransmitter transporter uptake assay kit); format: cell-based; conditions: HEK-293 cells expressing human SERT
T1 construct: expressed in transfected cells; host or cells: HEK-293 (HEK-hSERT cells)
Description: The inhibitory effect of the compounds on the 5-HT transporter in HEK-293 cells expressing human SERT was tested using the Neurotransmitter transporter uptake assay kit (Molecular Devices product). The test was performed according to the kit instructions, using citalopram as a positive control. The specific procedure was as follows: a) HEK-hSERT cells were seeded at 20,000 cells/well in a 384-well plate and then incubated overnight at 37°C in an incubator. b) The following day, the compounds (test compounds and positive control) were diluted using DMSO from 20 mM DMSO solution to the working concentration. Each test compound and citalopram were transferred to a 384-well plate using a detection buffer containing 0.1% BSA. The initial test concentration of citalopram was 1 µM, diluted 3X. The initial test concentration of the test compounds was 10 µM, diluted 4X, with each concentration repeated twice. c) The cell culture 384-well plate was taken out from the incubator, the culture medium was aspirated from the wells, and 25 µL of the test compound solution was added per well. The cells were incubated at 37°C for 30 min. After incubation, 25 µL of a dye solution was added to each well and the cells were incubated at 37°C for 30 min. d) the fluorescence values were read on a Flexstation 3 and the data were analyzed using Graphpad Prism.

[1] = biological target: T2, recombinant human 5-HT1A receptor (Homo sapiens, UniProt P08908); experiment: 5-HT1A Receptor Agonist Activity Assay (LANCE cAMP, inhibition of cAMP production); format: cell-based; conditions: CHO-K1 cells expressing the recombinant human 5-HT1A receptor, read-out: 5-HT1A agonistic activity (EC50)
T2 construct: expressed in transfected cells
T2 sequence (P08908 1-422): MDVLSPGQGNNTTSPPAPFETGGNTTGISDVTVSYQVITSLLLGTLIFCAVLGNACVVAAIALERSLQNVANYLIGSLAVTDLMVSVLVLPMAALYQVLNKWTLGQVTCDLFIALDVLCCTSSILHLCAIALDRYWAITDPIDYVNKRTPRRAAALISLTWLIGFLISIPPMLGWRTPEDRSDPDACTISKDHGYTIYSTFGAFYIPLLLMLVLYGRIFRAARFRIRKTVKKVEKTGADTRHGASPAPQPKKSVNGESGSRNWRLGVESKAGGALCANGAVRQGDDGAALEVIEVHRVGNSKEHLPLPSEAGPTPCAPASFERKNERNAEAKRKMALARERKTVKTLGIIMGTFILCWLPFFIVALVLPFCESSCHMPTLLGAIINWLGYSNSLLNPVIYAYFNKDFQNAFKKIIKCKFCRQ
Description: The agonistic effect of the compounds on the 5-HT1A receptor was evaluated by testing their inhibitory effect on cAMP production in CHO-K1 cells. 8-OH-DPAT was used as a positive control. The specific procedures were as follows: a) The compounds (test compounds and positive control) were prepared to a stock concentration of 10 mM using DMSO, and Forskolin was prepared to a stock concentration of 10 mM. The initial test concentration of 8-OH-DPAT was 1 µM, diluted 3X. The initial test concentration of the test compounds was 0.1 µM, diluted 3X, and each concentration was repeated twice. 100 nL of the compounds and 10 nL of Forskolin were transferred to the test plate using an Echo, with a final DMSO concentration <1%. b) The stable 5-HT1A cell line was taken out from the incubator to observe the cell status. When the cell density reached 80%-90%, the culture medium was discarded and the cells were washed with 5 mL of DPBS. After discarding DPBS, 2 mL of trypsin was added, and the cells were incubated at 37 °C for 2-5 min. After adding 10 mL of complete culture medium, the cells were collected, which was centrifuged at 1000 rpm for 4 min, and the supernatant was discarded. […]

[2] = Mouse Pharmacokinetic Experiment (plasma and brain); format: in vivo, Male ICR mice; conditions: for Cmax / AUC(0-t): oral (po) dose 1 mg/kg; for bioavailability: mouse, iv 0.3 mg/kg, po 1 mg/kg
Description: Animal: Male ICR mice. Animals were randomly assigned to the treatment group and fasted for 12 hours before administration.
Drug to be tested: The compounds were dissolved in solvent (0.5% CMC-Na). The intravenous (iv) dose was 0.3 mg/kg, with an administration volume of 5 ml/kg; the oral (po) dose was 1 mg/kg, with an administration volume of 10 mL/kg body weight.
Sample Collection and Bioanalysis: After administration, blood was collected from the orbital sinus of mice at 0.083, 0.25, 0.5, 1, 2, 4, 6, 8, and 24 hours (n=3 at each time point) and placed in EP tubes containing heparin sodium. Mice were euthanized immediately via vertebral dislocation after blood collection, and their brains were harvested at the corresponding time points. All samples were collected immediately, rapidly frozen, and stored at -70°C for later use.
Plasma samples were obtained by whole blood centrifugation. 10 µL of plasma was then mixed with 190 µL of internal standard solution (20 ng/mL metoprazor in acetonitrile containing 0.1% formic acid). After mixing, the mixture was centrifuged at 13000 rpm for 10 min. For each sample, 120 µL of the supernatant was collected, and 0.5-10 µL (depending on the sensitivity of the compound) was then taken for drug analysis using an appropriate liquid chromatography-tandem mass spectrometry (LC-MS/MS) method. Standards for each analyte were used for calibration and identification.
The brain tissue and extract were homogenized at a brain tissue:extract (50% acetonitrile-water) ratio = 1 (g): 8 (ml) using 5 3mm-magnetic beads in an OMNI Bead Ruptor 24 Elite homogenizer at 3.2 m/s for 2 min. The mixture was centrifuged at 4°C, 3000g for 3 min. 50 µL of supernatant was collected and added with 200 µL of internal standard solution (20 ng/mL dissolved in 80% acetonitrile-water). After mixing well, the mixture was centrifuged at 13000 rpm for 10 min. 120 µL of supernatant was collected for each sample. Then, 0.5-10 µL of the supernatant (depending on the sensitivity of the compound) was taken and analyzed using an appropriate LC-MS/MS method. Standards for each analyte were used for calibration and identification.
Data Analysis: Drug concentrations below the limit of quantitation (LLOQ) were recorded as zero. Pharmacokinetic data analysis was performed in PK Solver using non-compartmental, bolus intravenous injection, or extravascular administration analysis model. Data points below LLOQ were excluded from the analysis to improve the validity of t1/2 calculation.

[3] = Rat Pharmacokinetic Experiment; format: in vivo, male SD rats; conditions: for AUC(0-t) / Cmax: rat plasma, oral (po) dose 3 mg/kg; for bioavailability: rat, iv 1 mg/kg, po 3 mg/kg
Description: The compound of Example 2 was used in a pharmacokinetic experiment in rats (non-fasted male SD rats). The compound of the present invention was dissolved in a solvent (0.5% CMC-Na). The intravenous (iv) dose was 1 mg/kg, with an administration volume of 5 ml/kg; the oral (po) dose was 3 mg/kg, with an administration volume of 10 mL/kg body weight. Approximately 0.3 mL of blood samples were collected from the jugular vein of rats at the following time points: 0.083, 0.25, 0.5, 1, 2, 4, 6, 8, and 24 h (n=3 at each time point). The collected blood was stored under ice-cooling conditions. Plasma was rapidly separated by centrifugation, and a precipitant was added. The concentration of the test compound was quantified using LC-MS.

T1 sequence (P31645 whole entry): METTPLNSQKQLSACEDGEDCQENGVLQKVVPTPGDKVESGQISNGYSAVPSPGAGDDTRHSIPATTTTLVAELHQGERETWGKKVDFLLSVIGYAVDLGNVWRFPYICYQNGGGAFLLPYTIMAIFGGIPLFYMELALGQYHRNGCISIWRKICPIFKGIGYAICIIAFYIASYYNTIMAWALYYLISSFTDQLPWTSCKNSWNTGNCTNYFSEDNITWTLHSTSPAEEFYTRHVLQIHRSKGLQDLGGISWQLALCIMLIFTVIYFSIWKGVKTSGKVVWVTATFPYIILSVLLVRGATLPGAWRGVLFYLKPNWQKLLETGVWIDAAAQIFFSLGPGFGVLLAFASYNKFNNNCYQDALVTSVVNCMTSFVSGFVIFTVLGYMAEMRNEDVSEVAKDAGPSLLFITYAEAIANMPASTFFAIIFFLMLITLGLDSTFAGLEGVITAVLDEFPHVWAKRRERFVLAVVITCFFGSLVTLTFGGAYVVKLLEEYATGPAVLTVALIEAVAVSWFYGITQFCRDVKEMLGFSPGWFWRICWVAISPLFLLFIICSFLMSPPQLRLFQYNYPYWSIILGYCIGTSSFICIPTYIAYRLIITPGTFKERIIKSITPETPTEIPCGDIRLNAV

IC50 (human SERT) | EC50 [1] | Compound | further results
13 nM | 1.5 nM | O=C1CCc2ccc(CCN3CCN(c4cc(F)cc5c4OCC5)CC3)cc2N1 [Example 5, 7-(2-(4-(5-fluoro-2,3-dihydrobenzofuran-7-yl)piperazin-1-yl)ethyl)-3,4-dihydroquinolin-2(1H)-one] | 
10.6 nM |  | O=C1CCc2ccc(CCN3CCN(c4cc(F)cc5c4OCO5)CC3)cc2N1 [Example 39, 7-(2-(4-(6-fluorobenzo[d][1,3]dioxol-4-yl)piperazin-1-yl)ethyl)-3,4-dihydroquinolin-2(1H)-one] | 
12 nM |  | O=C1CCc2ccc(CCN3CCN(c4cc(F)cc5ccoc45)CC3)cc2N1 [Example 6, 7-(2-(4-(5-fluorobenzofuran-7-yl)piperazin-1-yl)ethyl)-3,4-dihydroquinolin-2(1H)-one] | 
26 nM | 0.5 nM | O=C1CCc2ccc(CCN3CCN(c4cc(F)cc5ccsc45)CC3)cc2N1 [Example 15, 7-(2-(4-(5-fluorobenzo[b]thiophene-7-yl)piperazin-1-yl)ethyl)-3,4-dihydroquinolin-2(1H)-one] | 
7.8 nM | 0.5 nM | O=C1CCc2ccc(CCN3CCN(c4cc(F)cc5occc45)CC3)cc2N1 [Example 1, 7-(2-(4-(6-fluorobenzofuran-4-yl)piperazin-1-yl)ethyl)-3,4-dihydroquinolin-2(1H)-one] | bioavailability ([2]; male, ICR, plasma): 100%; Cmax ([2]; male, ICR, mouse brain tissue): 368 ng/g; AUC(0-t) ([2]; male, ICR, mouse plasma): 1170 ng·h/mL; Cmax ([2]; male, ICR, mouse plasma): 68.4 ng/mL

Second part, the molecule before the results:

Compound | IC50 (human SERT) | EC50 [1] | further results
[2H]C1([2H])C(=O)Nc2cc(CCN3CCN(c4cc(F)cc5occc45)CC3)ccc2C1([2H])[2H] [Example 43, 7-(2-(4-(6-fluorobenzofuran-4-yl)piperazin-1-yl)ethyl)-3,4-dihydroquinolin-2(1H)-one-3,3,4,4-d4] | 7.4 nM |  | 
O=C1CCc2ccc(CCN3CCN(c4c(F)ccc5ccsc45)CC3)cc2N1 [Example 14, 7-(2-(4-(6-fluorobenzo[b]thiophene-7-yl)piperazin-1-yl)ethyl)-3,4-dihydroquinolin-2(1H)-one] |  | 1 nM | 
O=c1ccc2ccc(CCN3CCN(c4cc(F)cc5ccoc45)CC3)cc2[nH]1 [Example 3, 7-(2-(4-(5-fluorobenzofuran-7-yl)piperazin-1-yl)ethyl)quinolin-2(1H)-one] |  | 1.3 nM | 
[2H]C1([2H])Cc2ccc(CCN3CCN(c4cc(F)cc5c4CCO5)CC3)cc2NC1=O [Example 22, 7-(2-(4-(6-fluoro-2,3-dihydrobenzofuran-4-yl)piperazin-1-yl)ethyl)-3,4-dihydroquinolin-2(1H)-one-3,3-d2] | 12.4 nM |  | 
O=C1CCc2ccc(CCN3CCN(c4ccc(F)c5sccc45)CC3)cc2N1 [Example 12, 7-(2-(4-(7-fluorobenzo[b]thiophene-4-yl)piperazin-1-yl)ethyl)-3,4-dihydroquinolin-2(1H)-one] |  | 0.8 nM | 
O=c1ccc2ccc(CCN3CCN(c4cc(F)cc5c4CCO5)CC3)cc2[nH]1 [Example 7, 7-(2-(4-(6-fluoro-2,3-dihydrobenzofuran-4-yl)piperazin-1-yl)ethyl)quinolin-2(1H)-one] | 9 nM |  | 
O=C1CCc2ccc(CCN3CCN(c4cc(F)cc5c4CCO5)CC3)cc2N1 [Example 2, 7-(2-(4-(6-fluoro-2,3-dihydrobenzofuran-4-yl)piperazin-1-yl)ethyl)-3,4-dihydroquinolin-2(1H)-one] |  |  | Cmax ([2]; in vivo, mouse brain tissue): 413 ng/g; AUC(0-t) ([2]; in vivo, mouse plasma): 794 ng·h/mL; Cmax ([2]; in vivo, mouse plasma): 72.8 ng/mL; bioavailability ([2]; in vivo): 77%; AUC(0-t) ([3]; in vivo): 5320 ng·h/mL; Cmax ([3]; in vivo): 815 ng/mL; bioavailability ([3]; in vivo): 100%
O=C1CCc2ccc(CCN3CCN(c4cc(F)cc5sccc45)CC3)cc2N1 [Reference compound, 7-(2-(4-(6-fluorobenzo[b]thiophene-4-yl)piperazin-1-yl)ethyl)-3,4-dihydroquinolin-2(1H)-one, reference compound] | 15 nM | 1 nM | bioavailability ([2]; male, ICR, plasma): 50%; Cmax ([2]; male, ICR, mouse brain tissue): 254 ng/g; AUC(0-t) ([2]; male, ICR, mouse plasma): 468 ng·h/mL; Cmax ([2]; male, ICR, mouse plasma): 27.5 ng/mL; bioavailability ([3]; male, SD, plasma): 43%; AUC(0-t) ([3]; male, SD): 1560 ng·h/mL; Cmax ([3]; male, SD): 280 ng/mL
[2H]C1([2H])CC(=O)Nc2cc(CCN3CCN(c4cc(F)cc5occc45)CC3)ccc21 [Example 41, 7-(2-(4-(6-fluorobenzofuran-4-yl)piperazin-1-yl)ethyl)-3,4-dihydroquinolin-2(1H)-one-4,4-d2] |  | 0.7 nM | 
O=c1ccc2ccc(CCN3CCN(c4cc(F)cc5ccsc45)CC3)cc2[nH]1 [Example 16, 7-(2-(4-(5-fluorobenzo[b]thiophene-7-yl)piperazin-1-yl)ethyl)quinolin-2(1H)-one] |  | 0.5 nM | 
